Test results published in patent US8912123B2, “Safened herbicidal compositions including 4-amino-3-chloro-5-fluoro-6-(4-chloro-2-fluoro-3-methoxyphenyl)pyridine-2-carboxylic acid or a derivative thereof and methods for their use” (Dow AgroSciences, LLC., priority 2012, dated 2014).

System: winter barley (Hordeum vulgare, HORVW)
Assay: Post-emergence field trial, visual crop injury (ear deformation) in winter barley
Assay type: in vivo
Settings: for Observed Visual Injury - Ear Deformation (%) 227 DAA HORVW: no safener, 1 L/ha Agnique BL3095, post-emergence field, scale 0-100
Experimental: A post-emergence field trial was conducted under field conditions in Helbigsdorf, Germany. Trial site was located in commercially grown fields of winter barley (Hordeum vulgare, HORVW) using standard herbicide small plot research methodology. Postemergence trial plot was 2.5 meter (m)×5 m (width×length) with 3 replicates per treatment. The crop was grown using normal cultural practices for fertilization, seeding, and maintenance to ensure good growth of the crop and the weeds. Trial treatments included spray formulations containing 4-amino-3-chloro-5-fluoro-6-(4-chloro-2-fluoro-3-methoxy-phenyl)pyridine-2-carboxylic acid (Compound A) at various rates and optionally including cloquintocet mexyl. All treatments in the post-emergence field trials were applied using a bicycle sprayer compressed air/gas sprayer with flat fan nozzles (90°) calibrated to apply 200 L/ha spray volume at approximately 250 kPa nozzle pressure. The spray formulations for Trials 1-4 listed in Table 1 included Dow AgroSciences testing formulation Compound A (listed in acid equivalent per hectare (g ae/ha)), Agnique BL3095 (Cognis, France; listed as liters of product per hectare (L pr/ha)), and optionally cloquintocet mexyl (listed as grams of active ingredient per hectare (g ai/ha)). The spray solutions were mixed in water at the levels indicated in Table 1 to achieve the desired rates based on a unit area of application (hectare). Data for observed visual injury is provided for 227 days after application (DAA) in Table 1. Visual crop injury (ear deformation) was scored on a scale of 0 to 100 percent where 0 corresponds to no injury and 100 correspond to damage at all plants. All treatment results, both for the single product and mixture, are with 4 replicates. The trial sites had naturally occurring populations of weeds. The weed spectrum included loose silky-bent ([…]).

SMILES	Safening of the compound of formula I in winter barley (conclusion from Table 1, winter barley)	Observed Visual Injury - Ear Deformation (%) 227 DAA HORVW (Compound A 10 g ae/ha) [%]	Observed Visual Injury - Ear Deformation (%) 227 DAA HORVW (Compound A 20 g ae/ha) [%]	Observed Visual Injury - Ear Deformation (%) 227 DAA HORVW (Compound A 30 g ae/ha) [%]
CCCCCC(C)OC(=O)COc1ccc(Cl)c2cccnc12 (stereo not shown) [cloquintocet-mexyl, reference compound]	safened			
COc1c(Cl)ccc(-c2nc(C(=O)O)c(Cl)c(N)c2F)c1F [Compound A, 4-amino-3-chloro-5-fluoro-6-(4-chloro-2-fluoro-3-methoxy-phenyl)pyridine-2-carboxylic acid]		27	30	30
